According to patent publication US20230100838A1 (Revolution Medicines, Inc., priority 2019, published 2023):

Legend:
Format in all cases: binding
[1] = target: T1, GDP-loaded K-Ras (1-169) C51S, C80L, C118S (Homo sapiens, UniProt P01116, C118S/C51S/C80L); assay: K-Ras WT (GDP) cross-linking assay (conjugate formation, TOF mass spectrometry); design: key: 0: No observed x-linking; +: 0 < x ≤ 20; ++: 20 < x ≤ 40; +++: 40 < x ≤ 100; settings: percent covalently modified K-Ras by MS, room temperature, typical compound conc. 2, 10, 25 μM, endpoints 1 and 24 h
T1 construct: GDP-loaded K-Ras (1-169) C51S, C80L, C118S
Procedure: (§1) Protocol: K-Ras G12D(GDP) Cross-Linking Assay
(§2) Note: while the following protocol outlines the procedure for K-Ras G12D(GDP), a person of skill in the art may substitute other Ras proteins, and may also substitute a non-hydrolyzable GTP analog for GDP to study GTP bound Ras protein.
(§3) GDP-loaded K-Ras (1-169) G12D, C51S, C80L, C118S and GDP-loaded K-Ras (1-169) C51S, C80L, C118S were adjusted to 50 μM in K-Ras assay buffer (12.5 mM HEPES, 75 mM NaCl and 1 mM MgCl2 at pH 7.4). A 5 μL aliquot of each protein solution was added to each well of a 96-well microplate containing 40 μL of assay buffer. Initial compound stocks were prepared in DMSO at 100 times their final assay concentration. Compounds were then diluted 10-fold into K-Ras assay buffer to 10 times their final concentration. A 5 μL aliquot of each diluted compound solution was added to each protein solution in the 96-well microplate to initiate the reaction, which then proceeded at room temperature. Typical final compound concentrations were 2, 10, and 25 μM. At each time point, the reactions were analyzed immediately or quenched with 5 μL of a 5% formic acid solution and kept at 4° C. until analysis. Typical assay endpoints were 1 and 24 h.
(§4) Data collection took place on an Agilent 6230 TOF Mass Spectrometer. Complete reactions were injected onto a C4 reverse-phase column to separate protein from buffer components prior to entering the mass spectrometer. The proteins were eluted from the column by increasing acetonitrile fraction in the mobile phase and fed directly into the mass analyzer. Initial analysis of raw data took place in Agilent MassHunter BioConfirm software and consisted of deconvolution of multiple protein charge states with the maximum entropy algorithm, with a mass step of 1 Da. The heights of all deconvoluted protein masses were exported for further data analysis. The percent modification of each protein was then determined by calculating the peak height of the covalently modified K-Ras species as a percentage of the sum total of K-Ras protein peak height.

[2] = target: T2, GDP-loaded K-Ras (1-169) G12D, C51S, C80L, C118S (Homo sapiens, UniProt P01116, C118S/C51S/C80L/G12D); assay: K-Ras G12D(GDP) cross-linking assay (conjugate formation, TOF mass spectrometry); design: key: 0: No observed x-linking; +: 0 < x ≤ 20; ++: 20 < x ≤ 40; +++: 40 < x ≤ 100; settings: percent covalently modified K-Ras by MS, room temperature, typical compound conc. 2, 10, 25 μM, endpoints 1 and 24 h
T2 construct: GDP-loaded K-Ras (1-169) G12D, C51S, C80L, C118S
Procedure: as §1, §2, §3, §4

K-Ras G12S = K-Ras G12S (Homo sapiens, UniProt P01116, G12S); assay: K-Ras G12S cross-linking assay (comparable procedure, conjugate formation, TOF mass spectrometry)
Procedure: as §1, §2, §3, §4

[3] = Table 4, percent covalently modified K-Ras by MS
[4] = Table 5, percent covalently modified K-Ras by MS

Structure (SMILES): CCCN=C=NCCCN(C)c1nc(=O)n(-c2c(C)ccnc2C(C)C)c2nc(-c3ccccc3F)c(F)cc12 [Example 55, 6-fluoro-7-(2-fluorophenyl)-1-(2-isopropyl-4-methylpyridin-3-yl)-4-(methyl(3-(((propylimino)methylene)amino)propyl)amino)pyrido[2,3-d]pyrimidin-2(1H)-one]
- WT x-linking (%) ([1]; Table 4): ++ (20 < x ≤ 100)
- G12D x-linking (%) ([2]; Table 4): ++ (20 < x ≤ 40)
- G12S x-linking (%) (K-Ras G12S; [3]): ++ (10 < x ≤ 100)

Structure (SMILES): COCCN=C=NCC1CCN(c2nc(=O)n(-c3c(C)ccnc3C(C)C)c3nc(-c4ccccc4F)c(F)cc23)CC1 [Example 70, 6-fluoro-7-(2-fluorophenyl)-1-(2-isopropyl-4-methylpyridin-3-yl)-4-(4-(((((2-methoxyethyl)imino)methylene)amino)methyl)piperidin-1-yl)pyrido[2,3-d]pyrimidin-2(1H)-one]
- WT x-linking (%) ([1]; Table 5): ++ (20 < x ≤ 100)
- G12D x-linking (%) ([2]; Table 5): ++ (20 < x ≤ 40)
- G12S x-linking (%) (K-Ras G12S; [4]): ++ (10 < x ≤ 100)

Structure (SMILES): Cc1cccc2cccc(N3CCc4c(nc(OC[C@@H]5CCCN5C)nc4N4CCC(N=C=NCCn5ccnc5)CC4)C3)c12 [Example 87, N-(2-(1H-imidazol-1-yl)ethyl)-N-(1-(7-(8-methylnaphthalen-1-yl)-2-(((S)-1-methylpyrrolidin-2-yl)methoxy)-5,6,7,8-tetrahydropyrido[3,4-d]pyrimidin-4-yl)piperidin-4-yl)methanediimine]
- WT x-linking (%) ([1]; Table 5): ++ (20 < x ≤ 100)
- G12D x-linking (%) ([2]; Table 5): +++ (40 < x ≤ 100)
- G12S x-linking (%) (K-Ras G12S; [4]): ++ (10 < x ≤ 100)

Structure (SMILES): Cc1cccc2cccc(N3CCc4c(nc(OC[C@@H]5CCCN5C)nc4NCCNC4=NCCO4)C3)c12 [Example 40, (S)—N^1-(4,5-dihydrooxazol-2-yl)-N^2-(7-(8-methylnaphthalen-1-yl)-2-((1-methylpyrrolidin-2-yl)methoxy)-5,6,7,8-tetrahydropyrido[3,4-d]pyrimidin-4-yl)ethane-1,2-diamine]
- WT x-linking (%) ([1]; Table 4): + (0 < x ≤ 20)
- G12D x-linking (%) ([2]; Table 4): + (0 < x ≤ 20)
- G12S x-linking (%) (K-Ras G12S; [3]): + (0 < x ≤ 10)

Structure (SMILES): CN(CCN=C=Nc1ccccc1)c1ncnc2c(F)c(-c3ccccc3F)c(Cl)cc12 [Example 7, 6-chloro-8-fluoro-7-(2-fluorophenyl)-N-methyl-N-(2-(((phenylimino)methylene)amino)ethyl)quinazolin-4-amine]
- WT x-linking (%) ([1]; Table 4): + (0 < x ≤ 20)
- G12D x-linking (%) ([2]; Table 4): + (0 < x ≤ 20)
- G12S x-linking (%) (K-Ras G12S; [3]): + (0 < x ≤ 10)

Structure (SMILES): Cc1cccc2cccc(N3CCc4c(nc(OC[C@@H]5CCCN5C)nc4N4CCC(N(C)C(=O)C5CN5C)CC4)C3)c12 (stereo partly drawn) [Example 45, N,1-dimethyl-N-(1-(7-(8-methylnaphthalen-1-yl)-2-(((S)-1-methylpyrrolidin-2-yl)methoxy)-5,6,7,8-tetrahydropyrido[3,4-d]pyrimidin-4-yl)piperidin-4-yl)aziridine-2-carboxamide]
- WT x-linking (%) ([1]; Table 4): + (0 < x ≤ 20)
- G12D x-linking (%) ([2]; Table 4): + (0 < x ≤ 20)
- G12S x-linking (%) (K-Ras G12S; [3]): + (0 < x ≤ 10)

Structure (SMILES): Cc1cccc2cccc(N3CCc4c(nc(OC[C@@H]5CCCN5C)nc4N(C)CCN=C=NCc4ccccc4)C3)c12 [Example 27, N-(2-(((benzylimino)methylene)amino)ethyl)-N-methyl-7-(8-methylnaphthalen-1-yl)-2-(((S)-1-methylpyrrolidin-2-yl)methoxy)-5,6,7,8-tetrahydropyrido[3,4-d]pyrimidin-4-amine]
- WT x-linking (%) ([1]; Table 4): + (0 < x ≤ 20)
- G12D x-linking (%) ([2]; Table 4): ++ (20 < x ≤ 40)
- G12S x-linking (%) (K-Ras G12S; [3]): ++ (10 < x ≤ 100)

Structure (SMILES): COc1ccccc1CN=C=NC1CCN(c2nc(OC[C@@H]3CCCN3C)nc3c2CCN(c2cccc4cccc(C)c24)C3)CC1 [Example 81, N-(2-methoxybenzyl)-N-(1-(7-(8-methylnaphthalen-1-yl)-2-(((S)-1-methylpyrrolidin-2-yl)methoxy)-5,6,7,8-tetrahydropyrido[3,4-d]pyrimidin-4-yl)piperidin-4-yl)methanediimine]
- WT x-linking (%) ([1]; Table 5): + (0 < x ≤ 20)
- G12D x-linking (%) ([2]; Table 5): + (0 < x ≤ 20)
- G12S x-linking (%) (K-Ras G12S; [4]): + (0 < x ≤ 10)

Structure (SMILES): Cc1cccc2cccc(N3CCc4c(nc(OC[C@@H]5CCCN5C)nc4N4CCC(N=C=NCc5ccon5)CC4)C3)c12 [Example 86, N-(isoxazol-3-ylmethyl)-N-(1-(7-(8-methylnaphthalen-1-yl)-2-(((S)-1-methylpyrrolidin-2-yl)methoxy)-5,6,7,8-tetrahydropyrido[3,4-d]pyrimidin-4-yl)piperidin-4-yl)methanediimine]
- WT x-linking (%) ([1]; Table 5): ++ (20 < x ≤ 100)
- G12D x-linking (%) ([2]; Table 5): +++ (40 < x ≤ 100)
- G12S x-linking (%) (K-Ras G12S; [4]): ++ (10 < x ≤ 100)

Structure (SMILES): COC(=O)[C@@H]1CN1C(=O)N1CCN(c2nc(OC[C@@H]3CCCN3C)nc3c2CCN(c2cccc4cccc(C)c24)C3)C[C@@H]1CC#N [Example 109, methyl (S)-1-((S)-2-(cyanomethyl)-4-(7-(8-methylnaphthalen-1-yl)-2-(((S)-1-methylpyrrolidin-2-yl)methoxy)-5,6,7,8-tetrahydropyrido[3,4-d]pyrimidin-4-yl)piperazine-1-carbonyl)aziridine-2-carboxylate]
- WT x-linking (%) ([1]; Table 5): + (0 < x ≤ 20)
- G12D x-linking (%) ([2]; Table 5): + (0 < x ≤ 20)

Structure (SMILES): Cc1cccc2cccc(N3CCc4c(nc(OC[C@@H]5CCCN5C)nc4N4CCN(C[C@@H]5CN5)[C@@H](CC#N)C4)C3)c12 [Example 101, 2-((S)-1-(((S)-aziridin-2-yl)methyl)-4-(7-(8-methylnaphthalen-1-yl)-2-(((S)-1-methylpyrrolidin-2-yl)methoxy)-5,6,7,8-tetrahydropyrido[3,4-d]pyrimidin-4-yl)piperazin-2-yl)acetonitrile]
- WT x-linking (%) ([1]; Table 5): + (0 < x ≤ 20)
- G12D x-linking (%) ([2]; Table 5): + (0 < x ≤ 20)

Structure (SMILES): Cc1cccc2cccc(N3CCc4c(nc(OC[C@@H]5CCCN5C)nc4N4CC[C@@H](NC(=O)[C@@H]5CN5)[C@@H](CC#N)C4)C3)c12 [Example 128]
- WT x-linking (%) ([1]; Table 5): + (0 < x ≤ 20)
- G12D x-linking (%) ([2]; Table 5): + (0 < x ≤ 20)

Structure (SMILES): Cc1ccnc(C(C)C)c1-n1c(=O)nc(N2C[C@@H](C)N(C(=O)[C@H]3CN3)C[C@@H]2C)c2cc(F)c(-c3c(O)cccc3F)nc21 [Example 138]
- WT x-linking (%) ([1]; Table 5): 0
- G12D x-linking (%) ([2]; Table 5): 0

Structure (SMILES): Cc1ccnc(C(C)C)c1-n1c(=O)nc(N2C[C@H](C)N(C(=O)[C@H]3CN3)C[C@H]2C)c2cc(F)c(-c3c(O)cccc3F)nc21 [Example 139]
- WT x-linking (%) ([1]; Table 5): 0
- G12D x-linking (%) ([2]; Table 5): 0

Structure (SMILES): Cc1cccc2cccc(N3CCc4c(nc(OC[C@@H]5CCCN5C)nc4N4CC[C@H](NC(=O)C5CN5)C4)C3)c12 (stereo partly drawn) [Example 130]
- WT x-linking (%) ([1]; Table 5): 0
- G12D x-linking (%) ([2]; Table 5): + (0 < x ≤ 20)

Structure (SMILES): Cc1ccc2[nH]ncc2c1N1CCc2c(nc(OC[C@@H]3CCCN3C)nc2N2CCN(C(=O)[C@H]3CN3)[C@@H](CC#N)C2)C1 [Example 110, 2-((S)-1-((R)-aziridine-2-carbonyl)-4-(7-(5-methyl-1H-indazol-4-yl)-2-(((S)-1-methylpyrrolidin-2-yl)methoxy)-5,6,7,8-tetrahydropyrido[3,4-d]pyrimidin-4-yl)piperazin-2-yl)acetonitrile]
- WT x-linking (%) ([1]; Table 5): + (0 < x ≤ 20)
- G12D x-linking (%) ([2]; Table 5): + (0 < x ≤ 20)

Structure (SMILES): Cc1cccc2cccc(N3CCc4c(nc(OC[C@@H]5CCCN5C)nc4N4CC[C@@H](NC(=O)C5CN5)C4)C3)c12 (stereo partly drawn) [Example 129]
- WT x-linking (%) ([1]; Table 5): 0
- G12D x-linking (%) ([2]; Table 5): + (0 < x ≤ 20)

Structure (SMILES): C#CCCN1CCC[C@H]1COc1nc2c(c(N3CCN(C(=O)[C@@H]4CN4)[C@@H](CC#N)C3)n1)CCN(c1cccc3cccc(C)c13)C2 [Example 117, 2-((S)-1-((S)-aziridine-2-carbonyl)-4-(2-(((S)-1-(but-3-yn-1-yl)pyrrolidin-2-yl)methoxy)-7-(8-methylnaphthalen-1-yl)-5,6,7,8-tetrahydropyrido[3,4-d]pyrimidin-4-yl)piperazin-2-yl)acetonitrile]
- WT x-linking (%) ([1]; Table 5): 0
- G12D x-linking (%) ([2]; Table 5): + (0 < x ≤ 20)
